Earlier results on one compound are cited in patent publication US11793177B2, “Animal model of Angelman Syndrome” (UNIVERSITY OF SOUTH FLORIDA, priority 2016, dated 2023).

Structures are written as SMILES.

This data set deals with GR. The settings on record: treatment in adulthood; rodent.

Take `CC(/C=C/C(=O)NO)=C\[C@@H](C)C(=O)c1ccc(N(C)C)cc1` [TSA]: the “GR levels in the hippocampus” value was “increased”; the “repressive histone and methylation marks in the hippocampus” value is recorded as “reversed”.
